Measured values published in patent publication US20160208297A1, “OMEGA3 UNSATURATED FATTY ACID ENZYME AND METHOD FOR PRODUCING EICOSAPENTAENOIC ACID” (KYOTO UNIVERSITY, priority 2013, published 2016).

System: polypeptide (SEQ ID NO: 2) ω3 desaturase
Assay: conversion of added ω6 unsaturated fatty acids to ω3 unsaturated fatty acids by yeast transformant expressing the cDNA (SEQ ID NO: 1)
Assay type: cell-based, Pythium folliculosum
Conditions: for conversion into the corresponding ω3 unsaturated fatty acid / Conversion rate (%): Saccharomyces cerevisiae InvSc1 transformant, 28° C., two days; for Conversion rate (%): substrate added to medium, [product amount/(substrate amount + product amount)] × 100
Protocol: The cDNA (SEQ ID NO: 1) prepared in the above was integrated into a yeast expression vector, pYE22m (Biosci. Biotech. Biochem., 1995, 59: 1221-1228). The vector was introduced into Saccharomyces cerevisiae InvSc1 strain (tryptophan auxotrophy […]) by an electroporation method to obtain a transformant. The transformant was cultured in YPD culture medium (polypeptone 20 g, yeast extract 10 g, adenine 0.4 g, agar 20 g and glucose 20 g were diluted in 1,000 mL of water) at 28° C. for one day to express the polypeptide from cDNA integrated therein. Note that ω3 desaturase inherent in the oleaginous yeast is not expressed in this culture condition. Subsequently, to the culture medium, an ω6 unsaturated fatty acid: linoleic acid (LA, 18: 2n-6), γ-linolenic acid (GLA, 18: 3n-6), dihomo-γ-linolenic acid (DGLA, 20: 3n-6), or arachidonic acid (ARA, 20: 4n-6) was added and cultured at 28° C. for two days. Thereafter the amounts of the corresponding ω3 unsaturated fatty acid: α-linolenic acid (ALA, 18: 3n-3), stearidonic acid (SDA, 18: 4n-3), eicosatetraenoic acid (ETA, 20: 4n-3) or eicosapentaenoic acid (EPA, 20: 5n-3) produced by ω3 unsaturation were measured.

| Molecule | conversion into the corresponding ω3 unsaturated fatty acid | Conversion rate (%) | ω3 desaturation activity (expressed in Saccharomyces cerevisiae InvSc1, 28° C.) |
| --- | --- | --- | --- |
| CCCCC/C=C\C/C=C\C/C=C\C/C=C\CCCC(=O)O [AA, arachidonic acid] | converted into the corresponding ω3 unsaturated fatty acids | 7.86% |  |
| CCCCC/C=C\C/C=C\C/C=C\CCCCCCC(=O)O [DGLA, dihomo-γ-linolenic acid] | converted into the corresponding ω3 unsaturated fatty acids | 6.90% |  |
| CCCCC/C=C\C/C=C\C/C=C\CCCCC(=O)O [GLA, γ-linolenic acid] | converted into the corresponding ω3 unsaturated fatty acids | 8.36% |  |
| CCCCC/C=C\C/C=C\CCCCCCCC(=O)O [LA, linoleic acid] | converted into the corresponding ω3 unsaturated fatty acids | 3.03% |  |
| polypeptide (SEQ ID NO: 2): ω3 desaturase derived from Pythium folliculosum or Pythium torulosum, encoded by cDNA SEQ ID NO: 1 (protein, listed as Pythium folliculosum, Omega-3 desaturase) MADVNTSSPAAAPVATPEPFEFPSLTELKRSIPARYFESSAPRSLLFTARAFAFAYAFGAALFHARQLPLVAEHAALDALLCAAYTFLQGVNMWGFFTIGHDCGHGSFSRYHLLNFVVGTLTHSLILTPYEAWKLSHRLHHKNTGNIDQDEIFYPQRKETVNDPARKMVLSFGLAWWIYEIIGFPPRTEEHTELRDSLFSRHLITGSLSVLAHLACVMLAFNLTYVLGWATMGVYYWAPLFVFASMLVITTFLHHNDEETPWYADSEWTYVKGNLSSVDRDYGWVVNHLSHNIGTHQVHHLFPIIPHYNLNGATEYFRKAFPHLVRKSDDRILPAFVRVGLLYVKYGVIENDAKHFSLKDNREVLTKRA |  |  | an enzyme having ω3 desaturation activity at normal temperature |
